For this assay, the target named is T1, recombinant α1β1γ1 complex with β1 GBD mutations (W100G/W133A and others) (Rattus norvegicus, UniProt P80386, W100G/W133A).
T1 construct: we made mutations in full-length β1 coexpressed with α1 and γ1 in CCL13 cells; made in house; host or cells: human CCL13 cells, co-transfected; isolated by anti-myc immunoprecipitation
In words: recombinant AMPK with GBD point mutations in β1, assayed in immunoprecipitates. The assay is classed as biochemical. As to conditions: 20 mM; Figure 5D. The source says:
To test whether mutations that interfered with the binding of glycogen to the GBD also affected inhibition of AMPK by glycogen, we made mutations in full-length β1 coexpressed with α1 and γ1 in CCL13 cells, isolated the complex by immunoprecipitation via the myc tag on α1, and assayed the kinase activity in the presence and absence of glycogen. The activities were adjusted to correct for slight variation in recovery of the α1 subunit assessed by blotting (inset in Figure 3A). […] Because all of these assays were conducted in resuspended immunoprecipitates, the degree of inhibition of the wild-type was < 50%, as discussed in the previous section. […]
Figure 3 Effect of β Subunit Mutations on Inhibition of Recombinant AMPK Complexes by Glycogen (A) Myc-α1, γ1, and β1 with the wild-type sequence or the indicated mutations were expressed in CCL13 cells, immunoprecipitated, and assayed ± bovine liver glycogen (200 mM glucose equivalents); results are mean ± SEM (n = 3). […] (C) Myc-α1, γ1, and β1 with the wild-type sequence or with W100G/W133A mutations were expressed in CCL13 cells, immunoprecipitated using anti-myc (left) or anti-FLAG (right) antibodies, and analyzed by western blotting using anti-myc antibodies (top panels) or a mixture of anti-β1 and -γ1 antibodies (bottom panels). […]

These results are taken from PMC2642990, “The Glycogen-Binding Domain on the AMPK β Subunit Allows the Kinase to Act as a Glycogen Sensor” (Cell Metabolism, 2009).

T1 sequence (P80386 2-270 W100G/W133A): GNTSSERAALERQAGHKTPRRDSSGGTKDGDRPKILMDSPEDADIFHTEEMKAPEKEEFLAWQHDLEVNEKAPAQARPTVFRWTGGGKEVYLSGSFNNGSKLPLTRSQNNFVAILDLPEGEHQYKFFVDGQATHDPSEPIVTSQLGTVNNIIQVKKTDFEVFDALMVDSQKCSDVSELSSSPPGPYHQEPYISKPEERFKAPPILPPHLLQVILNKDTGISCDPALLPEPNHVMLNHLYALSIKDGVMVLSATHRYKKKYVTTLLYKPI
T1 sequence (P54645 whole entry partner): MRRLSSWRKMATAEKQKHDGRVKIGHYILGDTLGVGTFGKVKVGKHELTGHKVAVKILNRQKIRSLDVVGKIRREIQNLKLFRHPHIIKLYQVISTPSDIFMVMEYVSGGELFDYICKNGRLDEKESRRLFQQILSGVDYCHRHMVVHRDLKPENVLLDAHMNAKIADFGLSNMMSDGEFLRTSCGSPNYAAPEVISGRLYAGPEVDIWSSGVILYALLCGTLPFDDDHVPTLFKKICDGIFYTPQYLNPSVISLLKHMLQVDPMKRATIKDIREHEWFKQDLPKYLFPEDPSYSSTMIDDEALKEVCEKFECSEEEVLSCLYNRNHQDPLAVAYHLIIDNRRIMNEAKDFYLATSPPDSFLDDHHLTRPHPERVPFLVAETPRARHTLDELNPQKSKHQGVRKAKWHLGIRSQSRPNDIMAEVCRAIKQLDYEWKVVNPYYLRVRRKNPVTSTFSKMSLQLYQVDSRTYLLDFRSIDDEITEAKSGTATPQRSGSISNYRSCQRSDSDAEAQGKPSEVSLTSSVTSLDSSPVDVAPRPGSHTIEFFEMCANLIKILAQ
T1 sequence (P80385 whole entry partner): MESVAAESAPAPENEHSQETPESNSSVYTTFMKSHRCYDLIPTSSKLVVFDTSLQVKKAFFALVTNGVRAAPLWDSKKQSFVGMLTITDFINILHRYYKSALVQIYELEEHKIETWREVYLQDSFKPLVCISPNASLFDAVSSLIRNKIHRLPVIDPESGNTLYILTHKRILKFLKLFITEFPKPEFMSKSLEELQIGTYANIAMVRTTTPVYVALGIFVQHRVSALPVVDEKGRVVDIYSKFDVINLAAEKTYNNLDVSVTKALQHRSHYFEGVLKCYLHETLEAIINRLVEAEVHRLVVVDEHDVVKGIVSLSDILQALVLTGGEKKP

With `OC[C@H]1O[C@H](OC[C@H]2OC(O)[C@H](O)[C@@H](O)[C@@H]2O)[C@H](O)[C@@H](O)[C@@H]1O` (stereo partly shown) [isomaltose], the “inhibition of W100G/W133A mutant” value is given as “not”.
